The supplement of paper PMC10307832

Key:
Assay in all cases: relative viability (nuclei count vs DMSO), 5 days (fraction); higher = more cells survive
[1] = compound: C1/C(=C\C2=CC=CS2)/C(=O)/C(=C/C3=CC=CS3)/C1 + Cc1nc(NC(=O)N2CCC[C@H]2C(N)=O)sc1-c1ccnc(C(C)(C)C(F)(F)F)c1 [Alpelisib] (partner 2 µM)
Outline: (§1)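 Dosing by pin tool came one day after lung cancer cell lines were seeded in 1536-well plates, using either one drug or a fixed anchor-drug dose plus five library-drug doses (not always all listed) in √10 steps. After 5 days, nuclei were counted on 4× images. Relative viability is treated-well nuclei count divided by vehicle-well nuclei count, and values are medians of duplicate plates.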

Lestaurtinib + Lapatinib = compound: C[C@]12O[C@H](C[C@]1(O)CO)n1c3ccccc3c3c4c(c5c6ccccc6n2c5c31)CNC4=O [Lestaurtinib] + CS(=O)(=O)CCNCc1ccc(-c2ccc3ncnc(Nc4ccc(OCc5cccc(F)c5)c(Cl)c4)c3c2)o1 [Lapatinib] (partner 2 µM)
Outline: as §1

TPCA-1 + Trametinib = compound: C1=CC(=CC=C1C2=CC(=C(S2)NC(=O)N)C(=O)N)F [TPCA-1] + CC(=O)Nc1cccc(-n2c(=O)n(C3CC3)c(=O)c3c(Nc4ccc(I)cc4F)n(C)c(=O)c(C)c32)c1 [Trametinib] (partner 0.02 µM)
Outline: as §1

TPCA-1 + Olaparib = compound: C1=CC(=CC=C1C2=CC(=C(S2)NC(=O)N)C(=O)N)F [TPCA-1] + O=C(c1cc(Cc2n[nH]c(=O)c3ccccc23)ccc1F)N1CCN(C(=O)C2CC2)CC1 [Olaparib] (partner 8 µM)
Outline: as §1

Cell Line | relative viability ([1]; first compound 0.2 µM) | relative viability ([1]; first compound 0.6325 µM) | relative viability ([1]; first compound 2 µM) | relative viability ([1]; first compound 6.325 µM) | relative viability ([1]; first compound 20 µM) | relative viability (Lestaurtinib + Lapatinib; first compound 0.005 µM) | relative viability (Lestaurtinib + Lapatinib; first compound 0.01581 µM) | relative viability (Lestaurtinib + Lapatinib; first compound 0.05 µM) | relative viability (Lestaurtinib + Lapatinib; first compound 0.1581 µM) | relative viability (Lestaurtinib + Lapatinib; first compound 0.5 µM) | relative viability (TPCA-1 + Trametinib; first compound 0.04 µM) | relative viability (TPCA-1 + Trametinib; first compound 0.1265 µM) | relative viability (TPCA-1 + Trametinib; first compound 0.4 µM) | relative viability (TPCA-1 + Trametinib; first compound 1.265 µM) | relative viability (TPCA-1 + Trametinib; first compound 4 µM) | relative viability (TPCA-1 + Olaparib; first compound 0.04 µM) | relative viability (TPCA-1 + Olaparib; first compound 0.1265 µM) | relative viability (TPCA-1 + Olaparib; first compound 0.4 µM) | relative viability (TPCA-1 + Olaparib; first compound 1.265 µM) | relative viability (TPCA-1 + Olaparib; first compound 4 µM)
201T | 1.01 | 0.964 | 1.08 | 0.934 | 1 | 1.05 | 1.08 | 1.04 | 1.2 | 0.961 | 0.717 | 0.729 | 0.691 | 0.733 | 0.751 | 0.857 | 0.827 | 0.841 | 0.83 | 0.87
A549 | 0.608 | 0.867 | 0.746 | 0.483 | 0.73 | 1.1 | 0.972 | 0.447 | 0.132 | 0.0697 |  |  |  |  |  | 0.342 | 0.313 | 0.507 | 0.201 | 0.0946
A-427 | 1.12 | 1.06 | 1.18 | 1.04 | 1.01 | 1.03 | 1.06 | 1 | 0.711 | 0.225 | 0.771 | 0.652 | 0.875 | 0.68 | 0.718 | 0.818 | 0.686 | 0.778 | 0.777 | 0.65
ABC-1 | 1.06 | 1.17 | 1.11 | 0.881 | 0.739 | 1.27 | 1.32 | 1.06 | 1.01 | 1.15 |  |  |  |  |  | 1.43 | 0.676 | 0.97 | 0.789 | 0.788
BEN | 1.02 | 0.981 | 0.977 | 0.972 | 1.07 | 0.743 | 0.959 | 0.586 | 0.408 | 0.255 | 1.04 | 0.736 | 1.18 | 1.39 | 1.04 | 1.08 | 0.977 | 1.32 | 1.04 | 0.869
CAL-12T | 1.33 | 1.15 | 0.95 | 0.856 | 1.13 | 0.671 | 0.649 | 0.537 | 0.384 | 0.246 | 0.326 | 0.331 | 0.345 | 0.358 | 0.254 | 0.621 | 0.734 | 0.732 | 0.638 | 0.753
COR-L23 | 0.772 | 0.829 | 0.818 | 0.722 | 0.686 | 1.08 | 1.24 |  | 0.623 | 0.271 | 0.715 | 0.512 | 0.713 | 0.547 | 0.33 | 0.393 | 0.329 | 0.286 | 0.303 | 0.325
COR-L 105 | 1.36 | 1.02 | 0.902 | 0.728 | 0.913 | 0.358 | 0.389 | 0.289 | 0.304 | 0.256 | 0.542 | 0.321 | 0.422 | 0.505 | 0.407 | 0.712 | 0.7 | 0.665 | 0.752 | 0.697
